Measurements: patent US11105799B2, “Biomarkers of therapeutic responsiveness” (Meso Scale Technologies, LLC., priority 2009, dated 2021)

Tests used:
human 786-0 RCC cells [1] = test: Tumor size of human 786-0 RCC xenografts in mice treated with sorafenib; assay type: in vivo; conditions: tumor approximately 12 mm diameter at start
Description: A panel of biomarkers was measured in RCC xenograft tissue extracts from mice. The mice were implanted with human 786-0 RCC cells and the cells were allowed to grow until a tumor of approximately 12 mm diameter was formed. The “Set A” group of mice received no drug treatment prior to removal of the xenograft tissue. The other two groups of mice—“Set C” and “Set D”—were treated with sorafenib prior to removal of the xenograft tissue. […] The “Set D” developed resistance to the drug and the tumor size increased to 16 mm in diameter during treatment.

tumor vasculature = conditions: xenograft studies; cited from earlier work
GSK30 = conditions: melanoma cells; cited from earlier work
human 786-0 RCC cells [2] = test: Multiplex immunoassay of biomarker levels in RCC xenograft tissue extracts from mice; assay type: in vivo; conditions: for AMPKa1 Total marker concentration +/- SD / AMPKa1 p174 marker concentration +/- SD / AMPKa1 p285 marker concentration +/- SD / Gsk3b Phospho marker concentration +/- SD / Gsk3b Total marker concentration +/- SD / Mek1/2 Phospho marker concentration +/- SD / Mek1/2 Total marker concentration +/- SD: 1 ug protein/well; for STAT3 Phospho marker concentration +/- SD: 2 ug protein/well; for Hif1a Total marker concentration +/- SD: 4 ug protein/well
Description: A panel of biomarkers was measured in RCC xenograft tissue extracts from mice. The mice were implanted with human 786-0 RCC cells and the cells were allowed to grow until a tumor of approximately 12 mm diameter was formed. The “Set A” group of mice received no drug treatment prior to removal of the xenograft tissue.
Multiplex immunoassay kits were used for detection of total and/or phosphorylated biomarkers (supplied by Meso Scale Diagnostics, LLC, Gaithersburg, Md.). Levels of each biomarker were determined by calibration of the assays with were either purified calibrator proteins or using control cell lysates from appropriately treated cultured cell lines (e.g., cells subjected to conditions known to induce or reduce levels of a specific biomarker). Calibration curves were derived by testing serial dilutions of the calibrator lysates or purified proteins. Levels of biomarkers in test samples were back-calculated from the calibration curves and were expressed in terms of wt. of protein per weight of tissue extract (for purified calibrators) or in terms of weight of crude control lysate protein per well (for lysate calibrators). Titrations of tumor extracts were carried out to determine the linearity of the assay response to sample dilution and to select the sample dilution that would be appropriate to use for each assay panel.
In general, the assay format was as follows, with minor alterations for specific assay panels as indicated in the assay protocols provided with each assay kit (supplied by Meso Scale Diagnostics, LLC): (1) block MSD MULTI-SPOT® plate for 1 hour with appropriate MSD® blocking solution and wash; (2) add 25 μl assay diluent to each well, if specified; (3) add 25 μl calibrator, or sample (diluted as appropriate) to each well; (4) incubate with shaking for 1-3 hours (time as specified) and wash the well; (5) add 25 μl labeled detection antibody solution to each well; (6) incubate with shaking for 1-2 hours (time as specified) and wash the well; (7) add 150 μl MSD read buffer to each well; (8) read plate immediately on MSD SI6000 Reader (supplied by Meso Scale Diagnostics, LLC).

[3] = Tumor Group C (treated), sensitive to sorafenib, 0.5 ug total protein/well
[4] = Tumor Group C (treated), sensitive to sorafenib
[5] = Tumor Group C (treated), sensitive to sorafenib, 2.5 ug protein/well
[6] = Tumor Group D (resistant), sorafenib treated, 0.5 ug total protein/well
[7] = Tumor Group D (resistant), sorafenib treated
[8] = Tumor Group D (resistant), sorafenib treated, 2.5 ug protein/well

For `CNC(=O)c1cc(Oc2ccc(NC(=O)Nc3ccc(Cl)c(C(F)(F)F)c3)cc2)ccn1` [sorafenib], the tumor size (human 786-0 RCC cells [1]; Set C, sensitive) is listed as “tumor size decreased”, the “tumor size (diameter) during treatment” value (human 786-0 RCC cells [1]; Set D, developed resistance) is listed as 16 mm and the “effect on tumor vasculature” value (tumor vasculature) is listed as “reduction in tumor vasculature”. For the same molecule, the “effect on GSK3β activity” value (GSK30) was “activates GSK30”, the “Akt Phospho marker concentration +/- SD” value (human 786-0 RCC cells [2]; [3]) was 348 +/− 85 ng calibrator lysate protein/w and the “Akt Total marker concentration +/- SD” value (human 786-0 RCC cells [2]; [3]) was 142 +/− 43 ng calibrator lysate protein/w. For the same molecule, the “Erk1/2 Phospho marker concentration +/- SD” value (human 786-0 RCC cells [2]; [3]) was 102 +/− 45 ng calibrator lysate protein/w, the “Met Phospho marker concentration +/- SD” value (human 786-0 RCC cells [2]; [3]) was 34 +/− 7 ng calibrator lysate protein/w and the “Met Total marker concentration +/- SD” value (human 786-0 RCC cells [2]; [3]) was 850 +/− 375 ng calibrator lysate protein/w. The “p21 Total marker concentration +/- SD” value (human 786-0 RCC cells [2]; [3]) was 1.1 +/− 0.3 pg/ug tumor protein, the “p38 Total marker concentration +/- SD” value (human 786-0 RCC cells [2]; [3]) was 449 +/− 266 ng calibrator lysate protein/w and the “AMPKa1 Total marker concentration +/- SD” value (human 786-0 RCC cells [2]; [4]) was 29 +/− 13 pg/ug tumor protein. For the same molecule, the “AMPKa1 p174 marker concentration +/- SD” value (human 786-0 RCC cells [2]; [4]) was 7.3 +/− 4.4 pg/ug tumor protein, the “AMPKa1 p285 marker concentration +/- SD” value (human 786-0 RCC cells [2]; [4]) was 29 +/− 15 pg/ug tumor protein and the “Gsk3b Phospho marker concentration +/- SD” value (human 786-0 RCC cells [2]; [4]) was 1188 +/− 446 ng calibrator lysate protein/w. For the same molecule, the “Gsk3b Total marker concentration +/- SD” value (human 786-0 RCC cells [2]; [4]) was 3771 +/− 1491 ng calibrator lysate protein/w, the “Mek1/2 Phospho marker concentration +/- SD” value (human 786-0 RCC cells [2]; [4]) was 116 +/− 21 ng calibrator lysate protein/w and the “Mek1/2 Total marker concentration +/- SD” value (human 786-0 RCC cells [2]; [4]) was 350 +/− 90 ng calibrator lysate protein/w. For the same molecule, the “STAT3 Phospho marker concentration +/- SD” value (human 786-0 RCC cells [2]; [4]) was 65 +/− 16 ng calibrator lysate protein/w, the “Jnk Phospho marker concentration +/- SD” value (human 786-0 RCC cells [2]; [5]) was 74 +/− 29 ng calibrator lysate protein/w and the “Jnk Total marker concentration +/- SD” value (human 786-0 RCC cells [2]; [5]) was 983 +/− 356 ng calibrator lysate protein/w. The “PlGF Total marker concentration +/- SD” value (human 786-0 RCC cells [2]; [5]) was 0.083 +/− 0.031 pg/ug tumor protein, the “VEGFR-1 Total marker concentration +/- SD” value (human 786-0 RCC cells [2]; [5]) was 0.26 +/− 0.08 pg/ug tumor protein and the “bFGF Total marker concentration +/- SD” value (human 786-0 RCC cells [2]; [5]) was 2.1 +/− 0.6 pg/ug tumor protein. For the same molecule, the “Hif1a Total marker concentration +/- SD” value (human 786-0 RCC cells [2]; [4]) was 19 +/− 3 ng calibrator lysate protein/w, the “Akt Phospho marker concentration +/- SD” value (human 786-0 RCC cells [2]; [6]) was 354 +/− 84 ng calibrator lysate protein/w and the “Akt Total marker concentration +/- SD” value (human 786-0 RCC cells [2]; [6]) was 93 +/− 25 ng calibrator lysate protein/w. For the same molecule, the “Erk1/2 Phospho marker concentration +/- SD” value (human 786-0 RCC cells [2]; [6]) was 206 +/− 103 ng calibrator lysate protein/w, the “Erk1/2 Total marker concentration +/- SD” value (human 786-0 RCC cells [2]; [6]) was 486 +/− 306 ng calibrator lysate protein/w and the “Met Phospho marker concentration +/- SD” value (human 786-0 RCC cells [2]; [6]) was 41 +/− 6 ng calibrator lysate protein/w. For the same molecule, the “Met Total marker concentration +/- SD” value (human 786-0 RCC cells [2]; [6]) was 595 +/− 137 ng calibrator lysate protein/w, the “p21 Total marker concentration +/- SD” value (human 786-0 RCC cells [2]; [6]) was 2.2 +/− 0.9 pg/ug tumor protein and the “p38 Total marker concentration +/- SD” value (human 786-0 RCC cells [2]; [6]) was 428 +/− 227 ng calibrator lysate protein/w. The “AMPKa1 Total marker concentration +/- SD” value (human 786-0 RCC cells [2]; [7]) was 26 +/− 10 pg/ug tumor protein, the “AMPKa1 p174 marker concentration +/- SD” value (human 786-0 RCC cells [2]; [7]) was 3.8 +/− 0.9 pg/ug tumor protein and the “AMPKa1 p285 marker concentration +/- SD” value (human 786-0 RCC cells [2]; [7]) was 19 +/− 5 pg/ug tumor protein. The “Gsk3b Phospho marker concentration +/- SD” value (human 786-0 RCC cells [2]; [7]) was 1474 +/− 294 ng calibrator lysate protein/w, the “Gsk3b Total marker concentration +/- SD” value (human 786-0 RCC cells [2]; [7]) was 3829 +/− 1058 ng calibrator lysate protein/w and the “Mek1/2 Phospho marker concentration +/- SD” value (human 786-0 RCC cells [2]; [7]) was 113 +/− 24 ng calibrator lysate protein/w. The “Mek1/2 Total marker concentration +/- SD” value (human 786-0 RCC cells [2]; [7]) was 359 +/− 103 ng calibrator lysate protein/w, the “STAT3 Phospho marker concentration +/- SD” value (human 786-0 RCC cells [2]; [7]) was 41 +/− 10 ng calibrator lysate protein/w and the “Jnk Phospho marker concentration +/- SD” value (human 786-0 RCC cells [2]; [8]) was 110 +/− 22 ng calibrator lysate protein/w. For the same molecule, the “Jnk Total marker concentration +/- SD” value (human 786-0 RCC cells [2]; [8]) was 878 +/− 231 ng calibrator lysate protein/w, the “PlGF Total marker concentration +/- SD” value (human 786-0 RCC cells [2]; [8]) was 0.144 +/− 0.073 pg/ug tumor protein and the “VEGF Total marker concentration +/- SD” value (human 786-0 RCC cells [2]; [8]) was 26 +/− 15 pg/ug tumor protein. The “VEGFR-1 Total marker concentration +/- SD” value (human 786-0 RCC cells [2]; [8]) was 0.39 +/− 0.14 pg/ug tumor protein, the “bFGF Total marker concentration +/- SD” value (human 786-0 RCC cells [2]; [8]) was 2.6 +/− 1.3 pg/ug tumor protein and the “Hif1a Total marker concentration +/- SD” value (human 786-0 RCC cells [2]; [7]) was 14 +/− 3 ng calibrator lysate protein/w.
